Our source for the mass density and refractive index values is the NIST ThermoML archive (doi:10.1016/j.jct.2019.04.005).

Numbers after ± are expanded uncertainties.

One may read the mass density as the mass of a sample divided by its volume. One may read the refractive index as the speed of light in vacuum divided by its phase velocity in the sample.

The conditions of data set [1]: 298.2 K; 101.33 kPa; Liquid; Vibrating tube method.
Data set [2] in a line: refractive index (Na D-line) (dimensionless). As to conditions: 298.2 K; 101.33 kPa; Liquid; Standard Abbe refractometry.
Data set [3] in a line: wn = mass fraction of the nth substance listed. As to conditions: 298.2 K; 100 kPa; Liquid; Vibrating tube method; w1 = 0.85.
The nature of data set [4]: refractive index (Na D-line) (dimensionless); wn = mass fraction of the nth substance listed. The settings on record: 298.2 K; 100 kPa; Liquid; Standard Abbe refractometry; w1 = 0.85.

On to `CC(C)CC(C)O` (configuration not stated) [4-methyl-2-pentanol], for which, in data set [1], the mass density is on record as 803.77 ± 2.1 kg/m3. Also, the refractive index in data set [2] is reported as 1.4101 ± 0.003.

In the case of `O=P(O)(O)O` [phosphoric acid] + O, the mass density in data set [3] turned out to be 1682.7 ± 2.2 kg/m3. Also, in data set [4], the refractive index turned out to be 1.432 ± 0.003.

As for `O` [water], the refractive index in data set [2] is on record as 1.3325 ± 0.003.

Take `CCCC(C)O` (configuration not stated) [pentan-2-ol]: the mass density in data set [1] stood at 805.3 ± 2.1 kg/m3. Further, the refractive index in data set [2] was determined as 1.4049 ± 0.003.
